Experimental data taken from ChEMBL document CHEMBL6177984, “Pyrazolo[1,5-a]pyrimidine-Based Type-I Photosensitizer as an Efficient Pyroptosis Inducer for Tumor Ablation” (J Med Chem, 2025).
One block for each compound: values may come before it. Calls of active or inactive are those of the source. The calls are words filed in the database; no cut-off is given here.

Assays:
MDA-MB-231 [1] = assay: Photocytotoxicity in human MDA-MB-231 cells assessed as cell viability preincubated with compound for 1 hr followed by light irradiated with 400 to 700 nm 100 mW/cm^2 for 10 mins and measured after 24 hrs by CCK-8 assay; format: functional, cell-based; conditions: MDA-MB-231, light or radiation study
[2] = Dark cytotoxicity against human MDA-MB-231 cells assessed as cell viability incubated for 24 hrs by CCK8 assay; format: toxicity, cell-based
MDA-MB-231 [3] = assay: (§1) Induction of pyroptosis mediated immunogenic cell death in human MDA-MB-231 cells assessed as increase in CRT exposure on cell membrane at 0.5 uM preincubated with compound for 1 hr followed by light irradiated with 400 to 700 nm 100 mW/cm^2 for 10 mins and measured after 18 hrs; format: functional, cell-based; conditions: time 1150.0 min
MDA-MB-231 [4] = assay: Photocytotoxicity in human MDA-MB-231 cells assessed as cell viability at 1 uM preincubated with compound for 1 hr followed by light irradiated with 400 to 700 nm 100 mW/cm^2 for 10 mins and measured after 24 hrs by CCK-8 assay; format: functional, cell-based; conditions: time 1510.0 min
MDA-MB-231 [5] = assay: Dark cytotoxicity against human MDA-MB-231 cells assessed as cell viability at 1 uM incubated for 24 hrs by CCK8 assay; format: toxicity, cell-based; conditions: mda-mb-231, 24 h
[6] = Induction of ROS generation in BPS buffer assessed as increase in superoxide anion radical level by measuring increase in DHR123 fluorescence intensity at 10 uM irradiated with 400 to 700 nm 20 mW/cm2 light by DHR123 probe based fluorescence spectra analysis; format: functional; conditions: time <= 10.0 min
[7] = Induction of ROS generation in BPS buffer assessed as increase in singlet oxygen level by measuring reduction in ABDA absorption peak at 10 uM irradiated with 400 to 700 nm 20 mW/cm2 light […]; format: functional
[8] = Drug uptake in human MDA-MB-231 cells at 2 uM measured at 1 hr by flow cytometry analysis; format: ADME, cell-based; conditions: mda-mb-231, 1 h
MDA-MB-231 [9] = assay: Induction of ROS production in human MDA-MB-231 cells assessed as increase in red fluorescence intensity at 0.3 uM preincubated with compound for 1 hr followed by light irradiation with 400 to 700 nm 100 mW/cm2 for 10 mins by DHE fluorescent probe based flow cytometry; format: functional, cell-based; conditions: time 70.0 min
MDA-MB-231 [10] = assay: Induction of ROS production in human MDA-MB-231 cells assessed as increase in red fluorescence intensity at 0.3 uM preincubated with compound for 1 hr followed by light irradiation with 400 to 700 nm 100 mW/cm2 for 10 mins by […] fluorescent probe based flow cytometry; format: functional, cell-based; conditions: time 70.0 min
MDA-MB-231 [11] = assay: Induction of ROS production in human MDA-MB-231 cells assessed as increase in […] fluorescence intensity at 0.3 uM preincubated with compound for 1 hr followed by light irradiation with 400 to 700 nm 100 mW/cm2 for 10 mins by DHE fluorescent probe based flow cytometry; format: functional, cell-based; conditions: time 70.0 min
MDA-MB-231 [12] = assay: Induction of ROS production in human MDA-MB-231 cells assessed as increase in green fluorescence intensity at 0.3 uM preincubated with compound for 1 hr followed by light irradiation with 400 to 700 nm 100 mW/cm2 for 10 mins by HPF fluorescent probe based flow cytometry; format: functional, cell-based; conditions: time 70.0 min
MDA-MB-231 [13] = assay: Induction of ROS production in human MDA-MB-231 cells assessed as increase in intracellular OH level at 0.3 uM preincubated with compound for 1 hr followed by light irradiation with 400 to 700 nm 100 mW/cm2 for 10 mins by HPF fluorescent probe based flow cytometry; format: functional, cell-based; conditions: time 70.0 min
4T1 [14] = assay: Photocytotoxicity in mouse 4T1 cells assessed as cell viability up to 10 uM preincubated with compound for 1 hr followed by light irradiated with 400 to 700 nm 100 mW/cm^2 for 10 mins and measured after 24 hrs by CCK-8 assay; format: functional, cell-based; conditions: time 1510.0 min
MDA-MB-231 [15] = assay: Photocytotoxicity in human MDA-MB-231 cells assessed as cell viability preincubated with compound for 1 hr followed by light irradiated with 400 to 700 nm 100 mW/cm^2 for 10 mins and measured after 24 hrs under hypoxic condition by CCK-8 assay; format: functional, cell-based; conditions: MDA-MB-231, light or radiation study
MDA-MB-231 [16] = assay: (§2) Photocytotoxicity in human MDA-MB-231 cells assessed as cell death by measuring red fluorescence intensity at 0.5 uM preincubated with compound for 1 hr followed by light irradiated with 400 to 700 nm 100 mW/cm^2 for 10 mins and measured after 24 hrs by PI staining based confocal microscopic analysis; format: functional; conditions: time 1510.0 min
MDA-MB-231 [17] = assay: as §2, with “cell viability” for “cell death”, “measuring green” for “measuring red”, “by Calcein-AM” for “by PI”; format: functional; conditions: time 1510.0 min
MDA-MB-231 [18] = assay: Induction of apoptosis in human MDA-MB-231 cells assessed as cell death by flow cytometry analysis; format: functional, cell-based
MDA-MB-231 [19] = assay: Photocytotoxicity in human MDA-MB-231 cells assessed as reduction in ATP level at 0.5 uM preincubated with compound for 6 hrs followed by light irradiated with 400 to 700 nm 100 mW/cm^2 for 10 mins; format: functional, cell-based; conditions: time 370.0 min
MDA-MB-231 [20] = assay: Induction of pyroptosis in human MDA-MB-231 cells assessed as swelling bubble formation at 0.5 uM preincubated with compound for 3 hrs followed by light irradiated with 400 to 700 nm 100 mW/cm^2 for 10 mins by confocal microscopic analysis; format: functional, cell-based; conditions: time 190.0 min
MDA-MB-231 [21] = assay: Induction of pyroptosis in human MDA-MB-231 cells assessed as formation of bubble-like protrusion on plasma membrane at 0.5 uM preincubated with compound for 1 hr followed by light irradiated with 400 to 700 nm 100 mW/cm^2 for 10 mins and measured after 6 hrs by DiO staining based confocal microscopic analysis; format: functional, cell-based; conditions: time 430.0 min
MDA-MB-231 [22] = assay: Effect on caspase-3 expression in human MDA-MB-231 cells at 0.5 to 1 uM incubated for 3 hrs by Western blot analysis; format: functional, cell-based; conditions: dose 0.5-1 µM
MDA-MB-231 [23] = assay: Effect on GSDME expression in human MDA-MB-231 cells at 0.5 to 1 uM incubated for 3 hrs by Western blot analysis; format: functional, cell-based; conditions: dose 0.5-1 µM
MDA-MB-231 [24] = assay: Upregulation of cleaved caspase expression in human MDA-MB-231 cells at 0.5 to 1 uM preincubated with compound for 1 hr followed by light irradiated with 400 to 700 nm 100 mW/cm^2 for 10 mins and measured after 3 hrs by Western blot analysis; format: functional, cell-based; conditions: dose 0.5-1 µM, time 250.0 min
MDA-MB-231 [25] = assay: Upregulation of N-terminal GSDME expression in human MDA-MB-231 cells at 0.5 to 1 uM preincubated with compound for 1 hr followed by light irradiated with 400 to 700 nm 100 mW/cm^2 for 10 mins and measured after 6 hrs by Western blot analysis; format: functional, cell-based; conditions: dose 0.5-1 µM, time 430.0 min
4T1 [26] = assay: Induction of pyroptosis in mouse 4T1 cells preincubated with compound for 1 hr followed by light irradiated with 400 to 700 nm 100 mW/cm^2 for 10 mins; format: functional, cell-based; conditions: time 70.0 min
MDA-MB-231 [27] = assay: Induction of pyroptosis in human MDA-MB-231 cells assessed as increase in IL-18 content at 0.5 uM preincubated with compound for 1 hr followed by light irradiated with 400 to 700 nm 100 mW/cm^2 for 10 mins and measured after 12 to 20 hrs; format: functional, cell-based; conditions: time 790-1270 min
MDA-MB-231 [28] = assay: Induction of pyroptosis in human MDA-MB-231 cells assessed as increase in IL-1beta content at 0.5 uM preincubated with compound for 1 hr followed by light irradiated with 400 to 700 nm 100 mW/cm^2 for 10 mins and measured after 12 to 20 hrs; format: functional, cell-based; conditions: time 790-1270 min
MDA-MB-231 [29] = assay: Induction of pyroptosis in human MDA-MB-231 cells assessed as change in LDH level at 0.5 uM preincubated with compound for 1 hr followed by light irradiated with 400 to 700 nm 100 mW/cm^2 for 10 mins and measured after 12 to 24 hrs; format: functional, cell-based; conditions: time 790-1510 min
MDA-MB-231 [30] = assay: as §1, with “ATP release” for “CRT exposure on cell membrane”, “6 to 12” for “18”, “hrs by microplate luminometer analysis” for “hrs”; format: functional, cell-based; conditions: time 430-790 min
MDA-MB-231 [31] = assay: Induction of pyroptosis mediated immunogenic cell death in human MDA-MB-231 cells assessed as HMGB1 release from nucleus at 0.5 uM preincubated with compound for 1 hr followed by light irradiated with 400 to 700 nm 100 mW/cm^2 for 10 mins and measured after 18 hrs; format: functional, cell-based; conditions: time 1150.0 min
4T1 [32] = assay: Antitumor activity against mouse 4T1 cells implanted in BALB/c mouse at 1 mg/kg, iv using self assembled nanoparticle as source of compound measured at 3 hrs; format: functional, organism-based
[33] = Toxicity in BALB/c mouse implanted with mouse 4T1 cells assessed as change in body weight at 1 mg/kg, iv using self assembled nanoparticle as source of compound measured up to 16 days; format: organism-based; conditions: in vivo, 384 h, time < 16 day
[34] = Toxicity in BALB/c mouse implanted with mouse 4T1 cells assessed as heart damage at 1 mg/kg, iv using self assembled nanoparticle as source of compound measured up to 16 days by H and E staining based analysis; format: organism-based; conditions: in vivo, 384 h, time < 16 day
[35] = Toxicity in BALB/c mouse implanted with mouse 4T1 cells assessed as liver damage at 1 mg/kg, iv using self assembled nanoparticle as source of compound measured up to 16 days by H and E staining based analysis; format: organism-based; conditions: in vivo, 384 h, time < 16 day
[36] = Toxicity in BALB/c mouse implanted with mouse 4T1 cells assessed as spleen damage at 1 mg/kg, iv using self assembled nanoparticle as source of compound measured up to 16 days by H and E staining based analysis; format: organism-based; conditions: in vivo, 384 h, time < 16 day
[37] = Toxicity in BALB/c mouse implanted with mouse 4T1 cells assessed as lung damage at 1 mg/kg, iv using self assembled nanoparticle as source of compound measured up to 16 days by H and E staining based analysis; format: organism-based; conditions: in vivo, 384 h, time < 16 day
[38] = Toxicity in BALB/c mouse implanted with mouse 4T1 cells assessed as kidney damage at 1 mg/kg, iv using self assembled nanoparticle as source of compound measured up to 16 days by H and E staining based analysis; format: organism-based; conditions: in vivo, 384 h, time < 16 day
4T1 [39] = assay: (§3) Antitumor activity against mouse 4T1 cells implanted in BALB/c mouse assessed as increase CD4+ CD8+ cells in lymph at 1 mg/kg, iv using self assembled nanoparticle as source of compound preincubated with compound for 3 hrs followed by irradiation with 400 to 700 nm 100 mW/cm2 for 5 mins and measured after 14 days by flow cytometry analysis; format: functional, organism-based; conditions: time 20345.0 min
4T1 [40] = assay: as §3, with “spleen” for “lymph”; format: functional, organism-based; conditions: time 20345.0 min
4T1 [41] = assay: as §3, with “increase” for “increase CD4+ CD8+ cells”, “caspase-3 level” for “lymph”, “days” for “days by flow cytometry analysis”; format: functional, organism-based; conditions: time 20345.0 min
[42] = Induction of ROS generation in BPS buffer assessed as increase in superoxide anion radical level at 10 uM irradiated with 525 nm 20 mW/cm2 light by DHR123 probe based fluorescence spectra analysis; format: functional

SMILES: CC[n+]1c(/C=C/c2ccc(-c3cnn4ccc(N5CCOCC5)nc34)o2)sc2ccccc21
IC50 (MDA-MB-231 [1]): 1.01 µM
IC50 at 24 h [2]: > 10 µM

Drug uptake [8]: Active
SMILES: CC[n+]1c(/C=C/c2ccc(-c3cnn4ccc(N5CCOCC5)nc34)s2)sc2ccccc21.[I-]
Activity (MDA-MB-231 [3]): Active
Activity (MDA-MB-231 [4]): Active
Activity (MDA-MB-231 [5]): Non-toxic
IC50 (MDA-MB-231 [1]): 0.22 µM
IC50 at 24 h [2]: > 20 µM
Activity [6]: Time-dependent-effect
Activity [7]: Active
Activity (MDA-MB-231 [9]): Active
Activity (MDA-MB-231 [10]): Active
Activity (MDA-MB-231 [11]): Active
Activity (MDA-MB-231 [12]): Active
Activity (MDA-MB-231 [13]): Active
Activity (4T1 [14]): Active
IC50 (MDA-MB-231 [15]): 1.1 µM
Activity (MDA-MB-231 [16]): Active
Activity (MDA-MB-231 [17]): Active
Activity (MDA-MB-231 [18]): Active
Activity (MDA-MB-231 [19]): Active
Activity (MDA-MB-231 [20]): Active
Activity (MDA-MB-231 [21]): Active
Activity (MDA-MB-231 [22]): inactive
Activity (MDA-MB-231 [23]): inactive
Activity (MDA-MB-231 [24]): Active
Activity (MDA-MB-231 [25]): Active
Activity (4T1 [26]): Active
Activity (MDA-MB-231 [27]): Active
Activity (MDA-MB-231 [28]): Active
Activity (MDA-MB-231 [29]): Active
Activity (MDA-MB-231 [30]): Active
Activity (MDA-MB-231 [31]): Active
Activity (4T1 [32]): Active
Activity [33]: Non-toxic
Activity [34]: Non-toxic
Activity [35]: Non-toxic
Activity [36]: Non-toxic
Activity [37]: Non-toxic
Activity [38]: Non-toxic
Activity (4T1 [39]): Active
Activity (4T1 [40]): Active
Activity (4T1 [41]): Active

SMILES: O=S(=O)(O)c1cc(O)c(O)c(S(=O)(=O)O)c1
Activity (MDA-MB-231 [13]): Active

SMILES: COC(=O)c1ccccc1C1c2ccc(N)cc2Oc2cc(N)ccc21
Activity [42]: Active
